Assay: molar heat capacity at constant pressure
Settings: 101.33 kPa

CCC(O)CC [3-pentanol]
Settings | molar heat capacity at constant pressure [J/K/mol]
152.99 K, Liquid | 150.52
154.56 K, Crystal | 105.87
155.94 K, Liquid | 150.86
156.51 K, Crystal | 107.42
158.46 K, Crystal | 108.86
158.9 K, Liquid | 151.16
160 K, Crystal | 118.8
160.42 K, Crystal | 110.34
161.85 K, Liquid | 151.55
162.38 K, Crystal | 111.71
164.37 K, Crystal | 103.35
164.81 K, Liquid | 152.15
166.37 K, Crystal | 115.34
167.78 K, Liquid | 153.56
168.31 K, Crystal | 115.72
170 K, Crystal | 110.3
170.23 K, Crystal | 116.98
170.76 K, Liquid | 159.22
172.17 K, Crystal | 118.28
174.1 K, Crystal | 119.45
176.01 K, Crystal | 120.74
177.92 K, Crystal | 121.98
179.81 K, Crystal | 123.05
180 K, Crystal | 123.2
181.69 K, Crystal | 124.1
183.56 K, Crystal | 125.1
185.42 K, Crystal | 126.2
187.27 K, Crystal | 127.45
189.1 K, Crystal | 129.05
190 K, Crystal | 129.8
190.93 K, Crystal | 130.67
191.18 K, Crystal | 146.69
192.74 K, Crystal | 132.33
193.08 K, Crystal | 133.23
194.53 K, Crystal | 134.71
194.98 K, Crystal | 136.27
196.31 K, Crystal | 137.6
197.93 K, Crystal | 143.45
198.06 K, Crystal | 141.76
200 K, Crystal | 155.5
206.59 K, Liquid | 163.08
206.86 K, Liquid | 162.81
208.54 K, Liquid | 163.45
209.46 K, Liquid | 164.31
210 K, Liquid | 164.2
210.2 K, Liquid | 164.21
211.87 K, Liquid | 164.95
212.32 K, Liquid | 165.57
213.52 K, Liquid | 165.62
215.16 K, Liquid | 167.02
215.17 K, Liquid | 166.57
216.82 K, Liquid | 167.31
217.99 K, Liquid | 168.45
218.46 K, Liquid | 168.22
220 K, Liquid | 169.1
220.1 K, Liquid | 169.14
220.8 K, Liquid | 170.05
221.73 K, Liquid | 170.07
223.36 K, Liquid | 170.87
223.59 K, Liquid | 171.64
224.98 K, Liquid | 171.87
226.37 K, Liquid | 173.5
226.59 K, Liquid | 172.95
228.2 K, Liquid | 173.95
229.13 K, Liquid | 175.38
229.81 K, Liquid | 174.99
230 K, Liquid | 175.1
231.41 K, Liquid | 176.24
231.88 K, Liquid | 177.23
233 K, Liquid | 177.29
234.59 K, Liquid | 178.66
234.61 K, Liquid | 179.15
236.17 K, Liquid | 179.8
237.32 K, Liquid | 181.22
237.75 K, Liquid | 180.73
239.32 K, Liquid | 182.03
240 K, Liquid | 183.5
240.01 K, Liquid | 183.55
240.89 K, Liquid | 183.27
242.45 K, Liquid | 184.57
242.69 K, Liquid | 185.78
244 K, Liquid | 185.93
245.34 K, Liquid | 188.15
245.55 K, Liquid | 187.34
247.09 K, Liquid | 188.71
247.98 K, Liquid | 190.62
248.63 K, Liquid | 190.19
250 K, Liquid | 191.4
250.16 K, Liquid | 191.69
250.61 K, Liquid | 193.22
251.68 K, Liquid | 193.3
253.2 K, Liquid | 194.61
253.21 K, Liquid | 195.73
254.72 K, Liquid | 195.45
255.8 K, Liquid | 198.08
256.23 K, Liquid | 197.32
257.73 K, Liquid | 198.94
258.37 K, Liquid | 201.08
259.23 K, Liquid | 200.52
260 K, Liquid | 201
260.72 K, Liquid | 202.41
260.93 K, Liquid | 204.02
262.21 K, Liquid | 203.99
263.46 K, Liquid | 207.15
263.69 K, Liquid | 205.59
265.16 K, Liquid | 207.37
265.98 K, Liquid | 210.2
266.63 K, Liquid | 209.14
268.09 K, Liquid | 210.93
268.47 K, Liquid | 213.3
269.54 K, Liquid | 212.66
270 K, Liquid | 213.6
270.95 K, Liquid | 216.47
270.99 K, Liquid | 214.5
272.44 K, Liquid | 216.21
273.41 K, Liquid | 219.31
273.87 K, Liquid | 218
275.3 K, Liquid | 219.86
275.85 K, Liquid | 222.84
276.73 K, Liquid | 221.67
278.15 K, Liquid | 223.45
278.28 K, Liquid | 226.05
279.56 K, Liquid | 225.24
280 K, Liquid | 227
280.68 K, Liquid | 229.31
280.97 K, Liquid | 227.16
282.37 K, Liquid | 228.87
283.07 K, Liquid | 232.43
283.76 K, Liquid | 230.71
285.15 K, Liquid | 232.47
285.44 K, Liquid | 235.64
286.54 K, Liquid | 234.44
287.8 K, Liquid | 239.08
287.92 K, Liquid | 236.08
289.29 K, Liquid | 237.78
290 K, Liquid | 238.7
290.66 K, Liquid | 239.56
292.02 K, Liquid | 241.24
293.38 K, Liquid | 242.8
294.74 K, Liquid | 244.64
296.09 K, Liquid | 246.1
297.43 K, Liquid | 247.9
298.15 K, Liquid | 248.7
298.77 K, Liquid | 249.27
300 K, Liquid | 250.7
300.11 K, Liquid | 250.87
301.44 K, Liquid | 252.15
302.77 K, Liquid | 254
304.09 K, Liquid | 255.2
305.41 K, Liquid | 256.63
306.73 K, Liquid | 258.11
308.04 K, Liquid | 259.35
309.35 K, Liquid | 260.74
